The conditions of the data set: 100 kPa, Liquid, Vibrating tube method.

Numbers after ± are expanded uncertainties.

For `NC=O` [formamide], the mass density (usually mass per unit of volume) worked out at 1137.91 ± 0.11 kg/m3 (288.15 K); 1129.49 ± 0.11 kg/m3 (298.15 K); 1121.04 ± 0.11 kg/m3 (308.15 K); 1112.55 ± 0.1 kg/m3 (318.15 K); 1104.04 ± 0.1 kg/m3 (328.15 K).
For `O` [water], the mass density (328.15 K) was 985.69 ± 0.05 kg/m3.

(Values after the NIST ThermoML archive (doi:10.1021/acs.jced.9b00794).)
